Source: ChEMBL document CHEMBL1221200, “Diarylquinolines target subunit c of mycobacterial ATP synthase” (Nat Chem Biol, 2007)
≈ marks a conversion by molar mass, not a printed value. Calls of active or inactive are those of the source. No cut-off for these calls is given here.

Experiments:
[1] = test system: Mycolicibacterium smegmatis; test: Binding affinity to Mycobacterium smegmatis ATCC 607 ATP synthase subunit alpha by mass spectroscopy
[2] = test system: Mycobacterium tuberculosis; test: Antimicrobial activity against wild-type Mycobacterium tuberculosis expressing ATP synthase AtpE assessed as growth inhibition in early log-phase by 7H10 agar dilution method; type: functional, organism-based
[3] = biological target: ATP synthase subunit c (Mycobacterium tuberculosis (strain CDC 1551 / Oshkosh)) (UniProt P9WPS0); test: Inhibition of Mycobacterium tuberculosis ATP synthase subunit c-mediated ATP synthesis after […] by luminometry
Sequence of ATP synthase subunit c (Mycobacterium tuberculosis (strain CDC 1551 / Oshkosh)) (P9WPS0 whole entry): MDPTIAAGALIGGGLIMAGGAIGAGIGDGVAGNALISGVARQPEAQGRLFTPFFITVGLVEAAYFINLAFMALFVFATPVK

[4] = test system: Mycolicibacterium smegmatis; test: Binding affinity to Mycobacterium smegmatis ATCC 607 ATP synthase subunit beta by mass spectroscopy
[5] = biological target: ATP synthase subunit beta (Bacillus sp.) (UniProt P07677); test: Binding affinity to Bacillus PS3 ATP synthase subunit beta by mass spectroscopy
Sequence of ATP synthase subunit beta (Bacillus sp.) (P07677 whole entry): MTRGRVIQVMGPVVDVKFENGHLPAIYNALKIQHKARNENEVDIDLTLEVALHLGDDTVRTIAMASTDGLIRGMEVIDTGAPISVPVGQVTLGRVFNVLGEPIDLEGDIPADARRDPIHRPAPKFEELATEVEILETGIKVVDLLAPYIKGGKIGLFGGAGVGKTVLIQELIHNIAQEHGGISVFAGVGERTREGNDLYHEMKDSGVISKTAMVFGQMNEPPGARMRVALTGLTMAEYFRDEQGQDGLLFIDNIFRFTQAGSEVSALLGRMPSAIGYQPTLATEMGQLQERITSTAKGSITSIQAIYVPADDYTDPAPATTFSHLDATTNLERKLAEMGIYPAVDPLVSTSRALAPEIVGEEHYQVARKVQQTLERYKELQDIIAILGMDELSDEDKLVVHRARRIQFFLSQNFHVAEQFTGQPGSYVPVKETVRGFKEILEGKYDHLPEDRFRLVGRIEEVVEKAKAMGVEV

[6] = biological target: ATP synthase subunit alpha (Bacillus sp.) (UniProt P09219); test: Binding affinity to Bacillus PS3 ATP synthase subunit alpha by mass spectroscopy
Sequence of ATP synthase subunit alpha (Bacillus sp.) (P09219 whole entry): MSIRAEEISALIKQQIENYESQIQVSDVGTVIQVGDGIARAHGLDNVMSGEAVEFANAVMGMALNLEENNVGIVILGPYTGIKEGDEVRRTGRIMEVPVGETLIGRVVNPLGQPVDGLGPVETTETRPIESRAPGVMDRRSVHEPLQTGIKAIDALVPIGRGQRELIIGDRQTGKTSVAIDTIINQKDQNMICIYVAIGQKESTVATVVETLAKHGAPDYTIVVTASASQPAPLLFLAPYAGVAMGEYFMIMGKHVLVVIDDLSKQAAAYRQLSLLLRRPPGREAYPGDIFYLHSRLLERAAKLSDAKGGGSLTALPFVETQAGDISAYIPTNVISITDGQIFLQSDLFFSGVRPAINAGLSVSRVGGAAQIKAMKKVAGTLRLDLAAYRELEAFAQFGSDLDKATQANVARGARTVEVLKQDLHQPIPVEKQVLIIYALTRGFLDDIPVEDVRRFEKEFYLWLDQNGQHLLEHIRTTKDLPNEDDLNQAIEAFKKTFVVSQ

[7] = biological target: Putative uncharacterized protein atpE (Mycolicibacterium smegmatis, UniProt Q5TIX5); test: Inhibition of Mycobacterium smegmatis ATCC 607 ATP synthase subunit c-mediated ATP synthesis after 60 mins by luminometry
Sequence of Putative uncharacterized protein atpE (Q5TIX5 whole entry): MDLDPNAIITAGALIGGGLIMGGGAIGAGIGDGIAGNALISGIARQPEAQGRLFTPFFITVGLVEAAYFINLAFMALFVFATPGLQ

[8] = test system: Mycolicibacterium smegmatis; test: Antimicrobial activity against Mycobacterium smegmatis ATCC 607 by alamar blue assay; type: functional
[9] = test system: Mycobacterium tuberculosis; test: Antimicrobial activity against Mycobacterium tuberculosis by alamar blue assay; type: functional
[10] = test system: Mycolicibacterium smegmatis; test: Antimicrobial activity against Mycobacterium smegmatis isolate R09 expressing ATP synthase AtpE D32V mutant protein by 7H10 agar dilution method; type: functional
[11] = test system: Mycolicibacterium smegmatis; test: Ratio of MIC for Mycobacterium smegmatis expressing ATP synthase AtpE D32V mutant protein to MIC for wild type Mycobacterium smegmatis ATCC 607 expressing vector pSD5; type: functional
ATP synthase subunit c = ATP synthase subunit c (Bacillus sp., UniProt P00845); test: Binding affinity to Bacillus PS3 ATP synthase subunit c; parameters: species or system Bacillus sp. PS3
Sequence of ATP synthase subunit c (P00845 whole entry): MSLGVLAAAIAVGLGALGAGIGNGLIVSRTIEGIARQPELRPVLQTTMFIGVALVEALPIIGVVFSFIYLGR

[12] = Binding affinity to Bacillus PS3 ATP synthase subunit c A63P mutant; parameters: species or system Bacillus sp. PS3
[13] = test system: Mycolicibacterium smegmatis; test: Antimicrobial activity against wild type Mycobacterium smegmatis ATCC 607 by 7H10 agar dilution method; type: functional
[14] = test system: Mycolicibacterium smegmatis; test: Antimicrobial activity against Mycobacterium smegmatis expressing ATP synthase AtpE D32V mutant protein by 7H10 agar dilution method; type: functional
[15] = test system: Mycolicibacterium smegmatis; test: Antimicrobial activity against Mycobacterium smegmatis ATCC 607 expressing ATP synthase AtpE subunit by 7H9 agar dilution method; type: functional
[16] = test system: Mycolicibacterium smegmatis; test: Antimicrobial activity against wild type Mycobacterium smegmatis ATCC 607 by 7H9 agar dilution method; type: functional
[17] = test system: Mycobacterium tuberculosis; test: Antimicrobial activity against Mycobacterium tuberculosis H37Rv by […] dilution method; type: functional
[18] = test system: Mycolicibacterium smegmatis; test: Antimicrobial activity against Mycobacterium smegmatis isolate R09 expressing ATP synthase AtpE D32V mutant protein by 7H9 agar dilution method; type: functional
[19] = test system: Mycolicibacterium smegmatis; test: Antimicrobial activity against wild-type Mycobacterium smegmatis ATCC 607 expressing ATP synthase AtpE subunit by 7H10 agar dilution method; type: functional
[20] = test system: Mycolicibacterium smegmatis; test: Antimicrobial activity against wild type Mycobacterium smegmatis ATCC 607 expressing vector pSD5 by 7H9 agar dilution method; type: functional
[21] = test system: Mycolicibacterium smegmatis; test: Ratio of MIC for Mycobacterium smegmatis isolate R09 expressing ATP synthase AtpE D32V mutant protein to MIC for wild type Mycobacterium smegmatis; type: functional
[22] = test system: Mycobacterium tuberculosis; test: Antimicrobial activity against Mycobacterium tuberculosis H37Rv by 7H9 broth dilution method; type: functional
[23] = test system: Mycolicibacterium smegmatis; test: Antimicrobial activity against Mycobacterium smegmatis expressing ATP synthase AtpE D32V mutant protein by 7H9 agar dilution method; type: functional
[24] = test system: Mycolicibacterium smegmatis; test: Antimicrobial activity against wild type Mycobacterium smegmatis ATCC 607 expressing vector pSD5 by 7H10 agar dilution method; type: functional

**Q.** With COc1nc2ccc(Br)cc2cc1[C@@H](c1ccccc1)[C@@](O)(CCN(C)C)c1cccc2ccccc12 as the compound, how does the Activity [1] read?
**A.** Active

**Q.** And the Activity [2]?
**A.** Active

**Q.** And the inhibition [3]?
**A.** Dose-dependent effect

**Q.** What about the Activity [4] of the same compound?
**A.** Active

**Q.** And the Activity [5]?
**A.** Active

**Q.** What about the Activity [6] of the same compound?
**A.** Active

**Q.** Which IC50 [7] does the source give for COc1nc2ccc(Br)cc2cc1[C@@H](c1ccccc1)[C@@](O)(CCN(C)C)c1cccc2ccccc12 (single isomer, unassigned) [BEDAQUILINE] here?
**A.** 25 nM

**Q.** What about the MIC90 [8] of the same compound?
**A.** 0.35 µg/mL (≈ 0.63 µM)

**Q.** What about the MIC90 [9] of the same compound?
**A.** 8.8 µg/mL (≈ 15.8 µM)

**Q.** Which IC50 [7] does the source give for COc1nc2ccc(Br)cc2cc1[C@@H](c1ccccc1)[C@@](O)(CCN(C)C)c1cccc2ccccc12 [BEDAQUILINE] here?
**A.** 2.5 nM

**Q.** What about the MIC [10] of the same compound?
**A.** 0.7 µg/mL (≈ 1.26 µM)

**Q.** What about the Ratio [11] of the same compound?
**A.** >100

**Q.** And the Kd (ATP synthase subunit c)?
**A.** 500 nM

**Q.** What about the Kd [12] of the same compound?
**A.** 1500 nM

**Q.** And the MIC [13]?
**A.** 0.003 µg/mL (≈ 0.0054 µM)

**Q.** What about the MIC [14] of the same compound?
**A.** 0.4 µg/mL (≈ 0.72 µM)

**Q.** What about the MIC [15] of the same compound?
**A.** 0.003 µg/mL (≈ 0.0054 µM)

**Q.** What about the MIC [16] of the same compound?
**A.** 0.003 µg/mL (≈ 0.0054 µM)

**Q.** And the MIC [17]?
**A.** 0.05 µg/mL (≈ 0.09 µM)

**Q.** And the MIC [18]?
**A.** 0.6 µg/mL (≈ 1.08 µM)

**Q.** And the MIC90 [8]?
**A.** 0.004 µg/mL (≈ 0.0072 µM)

**Q.** What about the MIC [19] of the same compound?
**A.** 0.003 µg/mL (≈ 0.0054 µM)

**Q.** And the MIC [20]?
**A.** 0.003 µg/mL (≈ 0.0054 µM)

**Q.** What about the MIC90 [9] of the same compound?
**A.** 0.06 µg/mL (≈ 0.108 µM)

**Q.** And the Ratio [21]?
**A.** >100

**Q.** And the MIC [22]?
**A.** 0.03 µg/mL (≈ 0.054 µM)

**Q.** What about the MIC [23] of the same compound?
**A.** 0.5 µg/mL (≈ 0.9 µM)

**Q.** What about the MIC [24] of the same compound?
**A.** 0.003 µg/mL (≈ 0.0054 µM)

**Q.** For COc1nc2ccc(Br)cc2cc1[C@H](c1ccccc1)[C@@](O)(CCN(C)C)c1cccc2ccccc12 (racemic; 1d), which MIC90 [8] is on record?
**A.** 0.08 µg/mL (≈ 0.144 µM)

**Q.** What about the MIC90 [9] of the same compound?
**A.** 1.8 µg/mL (≈ 3.24 µM)

**Q.** What does the source list for COc1nc2ccc(Br)cc2cc1[C@H](c1ccccc1)[C@@](O)(CCN(C)C)c1cccc2ccccc12 (racemic; 1c)?
**A.** IC50 [7]: 750 nM; MIC90 [8]: 7 µg/mL (≈ 12.6 µM); MIC90 [9]: 44 µg/mL (≈ 79.2 µM)

**Q.** Which results are given for CO[C@H]1/C=C/O[C@@]2(C)Oc3c(C)c(O)c4c(O)c(c(/C=N/N5CCN(C)CC5)c(O)c4c3C2=O)NC(=O)/C(C)=C\C=C\[C@H](C)[C@H](O)[C@@H](C)[C@@H](O)[C@@H](C)[C@H](OC(C)=O)[C@@H]1C [RIFAMPIN]?
**A.** MIC90 ([8]; Mycolicibacterium smegmatis, ATCC 607, read-out: MIC90): 8.2 µg/mL (≈ 9.96 µM); MIC90 ([9]; Mycobacterium tuberculosis, read-out: MIC90): 0.13 µg/mL (≈ 0.158 µM)
